Data published in PubChem BioAssay AID1919009 (Molecular Pharmacology Branch, DTP, NCI, 2023).

System: K24384-001-R-PDC complex spheroid growth
Assay: Anticancer human tumor K24384-001-R-PDC patient-derived pancreatic adenocarcinoma cell line growth inhibition [AhR]
Settings: for IC50: curve of first compound; for viability, T/C: stronger effect = lower value
In short: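 Complex tumor spheroids co-cultured with HUVEC and human MSC stroma; AhR antagonists tested in combination with standard-of-care and investigational agents. Top concentration at or near clinical Cmax (else 10 microM), half-log dilutions; growth expressed as percent test/control.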

[1] = second compound 0.1 µM, first compound 0.0316 µM
[2] = second compound 0.1 µM, first compound 0.1 µM
[3] = second compound 0.1 µM, first compound 0.316 µM
[4] = second compound 0.1 µM, first compound 1 µM
[5] = second compound 0.1 µM, first compound 3.16 µM
[6] = second compound 0.1 µM, first compound 10 µM
[7] = second compound 0.316 µM, first compound 0.0316 µM
[8] = second compound 0.316 µM, first compound 0.1 µM
[9] = second compound 0.316 µM, first compound 0.316 µM
[10] = second compound 0.316 µM, first compound 1 µM
[11] = second compound 0.316 µM, first compound 3.16 µM
[12] = second compound 0.316 µM, first compound 10 µM
[13] = second compound 1 µM, first compound 0.0316 µM
[14] = second compound 1 µM, first compound 0.1 µM
[15] = second compound 1 µM, first compound 0.316 µM
[16] = second compound 1 µM, first compound 1 µM
[17] = second compound 1 µM, first compound 3.16 µM
[18] = second compound 1 µM, first compound 10 µM
[19] = second compound 3.16 µM, first compound 0.0316 µM
[20] = second compound 3.16 µM, first compound 0.1 µM
[21] = second compound 3.16 µM, first compound 0.316 µM
[22] = second compound 3.16 µM, first compound 1 µM
[23] = second compound 3.16 µM, first compound 3.16 µM
[24] = second compound 3.16 µM, first compound 10 µM
[25] = second compound 10 µM, first compound 0.0316 µM
[26] = second compound 10 µM, first compound 0.1 µM
[27] = second compound 10 µM, first compound 0.316 µM
[28] = second compound 10 µM, first compound 1 µM
[29] = second compound 10 µM, first compound 3.16 µM
[30] = second compound 10 µM, first compound 10 µM
[31] = second compound 0.1 µM, first compound 0.00316 µM
[32] = second compound 0.1 µM, first compound 0.01 µM
[33] = second compound 0.316 µM, first compound 0.00316 µM
[34] = second compound 0.316 µM, first compound 0.01 µM
[35] = second compound 1 µM, first compound 0.00316 µM
[36] = second compound 1 µM, first compound 0.01 µM
[37] = second compound 3.16 µM, first compound 0.00316 µM
[38] = second compound 3.16 µM, first compound 0.01 µM
[39] = second compound 10 µM, first compound 0.00316 µM
[40] = second compound 10 µM, first compound 0.01 µM
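Wherever viability, T/C is given: percent of DMSO vehicle-treated spheroid viability set as 100%.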

Row | Structure (SMILES) | IC50 (second compound 0.1 µM) | IC50 (second compound 0.316 µM) | IC50 (second compound 1 µM) | IC50 (second compound 3.16 µM) | IC50 (second compound 10 µM) | viability, T/C [1] | viability, T/C [2] | viability, T/C [3] | viability, T/C [4] | viability, T/C [7] | viability, T/C [8] | viability, T/C [9] | viability, T/C [10] | viability, T/C [13] | viability, T/C [14] | viability, T/C [15] | viability, T/C [19] | viability, T/C [20] | viability, T/C [25] | viability, T/C [26] | also measured
1 | CC(C)c1c(-c2ccccc2)nc2c(C#N)c[nH]n2c1=O + CC(CO)NC(=O)c1cc(-c2ccc(Cl)cc2)nn(-c2cnn(C)c2)c1=O | > 10000 nM | > 10000 nM | > 10000 nM | > 10000 nM | > 10000 nM | 118% | 122% | 76.2% | 99.7% | 116% | 107% | 89.4% | 96.8% | 92.7% | 80% | 94.2% | 63.2% | 75.1% | 77.5% | 74.4% | viability, T/C [5]: 92.2%; viability, T/C [6]: 80.8%; viability, T/C [11]: 73%; viability, T/C [12]: 78.3%; viability, T/C [16]: 64.7%; viability, T/C [17]: 72.1%; viability, T/C [18]: 72.8%; viability, T/C [21]: 79.8%; viability, T/C [22]: 64%; viability, T/C [23]: 68.7%; viability, T/C [24]: 63.5%; viability, T/C [27]: 62.5%; viability, T/C [28]: 60.6%; viability, T/C [29]: 52.3%; viability, T/C [30]: 61.6%
2 | CC[C@@]1(O)C(=O)OCc2c1cc1n(c2=O)Cc2cc3c(CN(C)C)c(O)ccc3nc2-1 + Cc1ccccc1N=Nc1ccc(NC(=O)c2ccnn2C)c(C)c1 | 28.1 nM | 24.5 nM | 28.4 nM | 19.6 nM | 30.7 nM | 48.5% | 44.9% | – | – | 46.9% | 39.6% | – | – | 50.2% | 38.4% | – | 38.3% | 39.1% | 51.5% | 47.4% | viability, T/C (second compound 0.1 µM, first compound 0.000316 µM): 93.4%; viability, T/C (second compound 0.1 µM, first compound 0.001 µM): 96.2%; viability, T/C [31]: 95.4%; viability, T/C [32]: 72.2%; viability, T/C (second compound 0.316 µM, first compound 0.000316 µM): 97.3%; viability, T/C (second compound 0.316 µM, first compound 0.001 µM): 90.7%; viability, T/C [33]: 98.6%; viability, T/C [34]: 70.5%; viability, T/C (second compound 1 µM, first compound 0.000316 µM): 101%; viability, T/C (second compound 1 µM, first compound 0.001 µM): 94.1%; viability, T/C [35]: 94.7%; viability, T/C [36]: 67.8%; viability, T/C (second compound 3.16 µM, first compound 0.000316 µM): 87.3%; viability, T/C (second compound 3.16 µM, first compound 0.001 µM): 99.8%; viability, T/C [37]: 92.5%; viability, T/C [38]: 65.8%; viability, T/C (second compound 10 µM, first compound 0.000316 µM): 111%; viability, T/C (second compound 10 µM, first compound 0.001 µM): 101%; viability, T/C [39]: 109%; viability, T/C [40]: 68.7%
3 | COc1cc(C2c3cc4c(cc3C(OC3OC5COC(C)OC5C(O)C3O)C3COC(=O)C23)OCO4)cc(OC)c1O (stereo not given) + Cc1ccccc1N=Nc1ccc(NC(=O)c2ccnn2C)c(C)c1 | 955 nM | 1090 nM | 830 nM | 969 nM | 2730 nM | 97.7% | 96.3% | 77.9% | 49.6% | 104% | 92.5% | 66.3% | 55.2% | 102% | 101% | 83.1% | 78.3% | 89.1% | 102% | 98.5% | viability, T/C [5]: 35.2%; viability, T/C [6]: 35.6%; viability, T/C [11]: 36.5%; viability, T/C [12]: 38.7%; viability, T/C [16]: 43.6%; viability, T/C [17]: 33.9%; viability, T/C [18]: 31.7%; viability, T/C [21]: 64.4%; viability, T/C [22]: 51.6%; viability, T/C [23]: 39.7%; viability, T/C [24]: 35.5%; viability, T/C [27]: 88.6%; viability, T/C [28]: 63.9%; viability, T/C [29]: 46.2%; viability, T/C [30]: 46.4%
4 | COc1cccc2c1C(=O)c1c(O)c3c(c(O)c1C2=O)CC(O)(C(=O)CO)CC3OC1CC(N)C(O)C(C)O1 (stereo not given) + Cc1ccccc1N=Nc1ccc(NC(=O)c2ccnn2C)c(C)c1 | 68.9 nM | 54.7 nM | < 31.6 nM | < 31.6 nM | 50.4 nM | 57.9% | 45.7% | 22.5% | 7.05% | 53.7% | 46% | 19% | 8.11% | 42% | 42% | 12.8% | 47.6% | 40.1% | 55.9% | 41.3% | viability, T/C [5]: 3.16%; viability, T/C [6]: 7.56%; viability, T/C [11]: 2.84%; viability, T/C [12]: 8.04%; viability, T/C [16]: 7.59%; viability, T/C [17]: 2.46%; viability, T/C [18]: 8.88%; viability, T/C [21]: 14.3%; viability, T/C [22]: 2.98%; viability, T/C [23]: 6.7%; viability, T/C [24]: 6.51%; viability, T/C [27]: 9.04%; viability, T/C [28]: 8.14%; viability, T/C [29]: 3.61%; viability, T/C [30]: 9.36%
5 | Nc1ccn(C2OC(CO)C(O)C2(F)F)c(=O)n1 (stereo not given) + Cc1ccccc1N=Nc1ccc(NC(=O)c2ccnn2C)c(C)c1 | 109 nM | 168 nM | 164 nM | 184 nM | 493 nM | 67.6% | 51.8% | 35.9% | 29.9% | 61.8% | 53.7% | 44.5% | 28% | 67.6% | 57.4% | 40.6% | 58% | 60.4% | 69.3% | 63.2% | viability, T/C [5]: 22.9%; viability, T/C [6]: 20.6%; viability, T/C [11]: 19.2%; viability, T/C [12]: 19.7%; viability, T/C [16]: 25.8%; viability, T/C [17]: 21.2%; viability, T/C [18]: 15.1%; viability, T/C [21]: 41.9%; viability, T/C [22]: 25.9%; viability, T/C [23]: 20.5%; viability, T/C [24]: 17.1%; viability, T/C [27]: 60%; viability, T/C [28]: 35.3%; viability, T/C [29]: 28.7%; viability, T/C [30]: 20.1%
6 | Nc1ncn(C2CC(O)C(CO)O2)c(=O)n1 (stereo not given) + Cc1ccccc1N=Nc1ccc(NC(=O)c2ccnn2C)c(C)c1 | > 1000 nM | > 1000 nM | > 1000 nM | > 1000 nM | > 1000 nM | 90.2% | 79.4% | 87.5% | 68.8% | 100% | 103% | 80.6% | 71.4% | 90% | 89.5% | 73.2% | 83.5% | 68.9% | 97.7% | 79% | viability, T/C [31]: 108%; viability, T/C [32]: 114%; viability, T/C [33]: 102%; viability, T/C [34]: 112%; viability, T/C [35]: 103%; viability, T/C [36]: 99.2%; viability, T/C [16]: 66.9%; viability, T/C [37]: 89.4%; viability, T/C [38]: 85.7%; viability, T/C [21]: 64.9%; viability, T/C [22]: 57.5%; viability, T/C [39]: 93.6%; viability, T/C [40]: 95.1%; viability, T/C [27]: 66.7%; viability, T/C [28]: 58.1%
